How the values were obtained:
[1] = system: IgE secreted into culture supernatant by BALB/c mouse spleen cells; assay: Determination of IgE produced in in vitro culture of spleen cells (adoptive secondary immune response against DNP-As), ELISA; format: cell-based; details: 96 h, spleen cells 5×10^6 cells/ml, 4 days, 37° C.; for inhibition at 10 µg/mL: 10 μg/ml
Protocol: (§1) The antiallergic activities of the 5H-pyrazolo[4,3-a]quinolizin-5-one compounds of formula (I) are also confirmed by inhibition of the rat homologous passive cutaneous anaphylaxis (hereinafter referred to as PCA) reaction.
(§2) Determination of Igs produced in in vitro culture
(§3) BALB/c mice were immunized intraperitoneally with 5 μg of DNP-As adsorbed on 4 mg aluminum hydroxide gel. Four weeks after the immunization, the spleens were excised from the mice and 5×10^7 spleen cells were transferred intravenously into the recipient mice which had been exposed to 600 rad of X-ray irradiation. Immediately after the cell transfer, the recipients were then immunized intraperitoneally with 5 μg of DNP-As adsorbed on 4 mg aluminum hydroxide gel to induce adoptive secondary immune response. Further 4 weeks after the immunization of recipients, the spleens were excised from them and the spleen cell suspensions containing 5×10^6 cells/ml were cultured with or without a compound to be tested in 96-well micro-titer plates at 37° C. for 4 days. IgE and IgG secreted into the culture supernatant was each determined correspondingly by enzyme-linked immunosolvent assay and the inhibitory effect was calculated according to the following equation. [formula]

[2] = system: IgG secreted into culture supernatant by BALB/c mouse spleen cells; assay: Determination of IgG produced in in vitro culture of spleen cells (adoptive secondary immune response against DNP-As), ELISA; format: cell-based; details: 96 h, spleen cells 5×10^6 cells/ml, 4 days, 37° C.; for inhibition at 10 µg/mL: 10 μg/ml
Protocol: as §1, §2, §3

| SMILES | inhibition at 10 µg/mL [1] [%] | inhibition at 10 µg/mL [2] [%] | inhibition at 20 µg/mL ([1]; 20 μg/ml) [%] | inhibition at 20 µg/mL ([2]; 20 μg/ml) [%] |
| --- | --- | --- | --- | --- |
| CCCc1nn(C(C)=O)c2c(C#N)c(=O)n3ccccc3c12 [S-26, 3-Acetyl-4-cyano-1-propyl-5H-pyrazolo[4,3-a]quinolizin-5-one] | 55 | 18 | – | – |
| CCc1nn(C(C)=O)c2c(C#N)c(=O)n3ccccc3c12 [S-31] | – | – | 75 | 33 |
| CC(=O)n1nc(CC(C)C)c2c1c(C#N)c(=O)n1ccccc21 [S-38] | 40 | 4 | – | – |
